Measured values from PubChem BioAssay (NCI).
Where “and” joins values, the source holds several entries; their conditions need not be identical. Equal entries are not always repeated.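 The compound was tested at five concentrations on cells cultured in 96-well plates, with a 48-hour exposure period. GI50 marks 50% less growth. Definition used: TGI = concentration required for complete inhibition of growth.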

Tested on: MDA-MB-468 breast
Test: NCI tumour cell line growth inhibition, 48 h

Compound	GI50	TGI
NC(=O)c1ccccc1NC(=O)c1ccccc1Cl	> 100 µM	> 100 µM
Cc1ccc(Nc2cc(C)nc(NCCCNc3ccnc4cc(Cl)ccc34)n2)cc1	1.43 µM	2.92 µM
Nc1nccc2c1ncn2C1OC(CO)C(O)C1O (configuration not stated)	> 100 µM	> 100 µM
COC(=O)[C@H](C)NC(=O)[C@@H](OC)[C@@H]1Cc2cc3cc(OC4CC(OC5CC(O)C(O)C(C)O5)C(O)C(C)O4)c(C)c(O)c3c(O)c2C(=O)[C@H]1OC1CC(OC2CC(OC3CC(C)(O)C(O)C(C)O3)C(O)C(C)O2)C(O)C(C)O1 (some centres not stated)	0.112 µM	1.07 µM
COc1cc(C2CC(=O)Nc3c2ccc2ccccc32)cc(Br)c1OC (configuration not stated)	0.285 µM	0.969 µM
COc1ccc(-c2ccc(-c3ccc(C(=N)N)cn3)o2)cc1Cl	1.84 µM	3.51 µM
CC(=O)Nc1ccc(NC(=O)Nc2cccc(-c3nc(-c4ccc(NC(=O)c5cccnc5)cc4Cl)no3)c2)cc1C(F)(F)F	0.234 µM	0.758 µM
O=C(COc1cccc(/C=C2\Oc3ccc4ccccc4c3C2=O)c1)c1ccc(Cl)cc1	9.62 µM	43.3 µM
COc1cc(F)c(/C=C/c2cc(/C=C/c3cc(OC)c(OC)cc3F)n(-c3cc(F)cc(F)c3)n2)cc1OC	2.39 µM	5.72 µM
COc1cc(NC(=O)NCc2ccco2)ccc1-c1ccc(NC(=O)NCc2ccco2)cc1OC	1.82 µM	4.61 µM
CN1C[C@@H]2Cn3c(c(C4=C(c5cn(C)c6ccccc56)C(=O)NC4=O)c4ccccc43)C[C@H]2C1	4.04 µM and 3.06 µM	9.12 µM and 6.64 µM
N#C/C(=C\c1c(-c2ccccc2)[nH]c2ccccc12)C(=O)c1ccccc1	5.56 µM	> 100 µM
COc1c(Cl)ccc2c(-c3nc4cc(Cl)c(F)cc4s3)cc(=O)oc12	4.89 µM	34.4 µM
Nc1ccc(C(OC(=O)c2cc3ccccc3c(Cc3c(O)c(C(=O)OC(c4ccc(N)cc4)(c4ccc(N)cc4)c4ccc(N)cc4)cc4ccccc34)c2O)(c2ccc(N)cc2)c2ccc(N)cc2)cc1	0.252 µM	2.13 µM
CCN(CC)CCn1c2ccc(OC)cc2c2sc3cc(OC)ccc3c(=O)c21	1.56 µM	3.21 µM
CCOC(=O)C(=CN1CCNC1=S)C(=O)OCC	> 100 µM	> 100 µM
C[C@@H](COCCC(=O)N1CCN(c2ncc(C(F)(F)F)cn2)CC1)Nc1cn[nH]c(=O)c1C(F)(F)F	17.9 µM	> 100 µM

Compound	GI50	TGI
COc1ccc(Cn2cc3c(c2-c2cc(OC)c(OC)c(OC)c2)CCc2cnoc2-3)cc1N	0.0251 µM	0.0735 µM
COc1cccc(C2SC(C)C(=O)N2CCc2cccs2)c1 (configuration not stated)	2.25 µM	7.32 µM
CCOc1nccc2c1nc(-c1nonc1N)n2CC	> 25 µM	> 25 µM
Cc1cc(C)c(S(=O)(=O)N(CCc2cccc(Br)c2)Cc2ccc(-c3cccc(S(C)(=O)=O)c3)cc2)c(C)c1	> 100 µM	> 100 µM
CC(C)C[C@H](NC(=O)[C@@H](NC(=O)c1cccc(-c2ccccc2)n1)[C@@H](C)O)B(O)O	0.00244 µM	0.00685 µM
COC(=O)[C@]12CC[C@@H](C)[C@H](C)[C@@H]1C1=CC[C@@H]3[C@@]4(C)C(C=O)=C[C@@](C)(COS(C)(=O)=O)C4[C@H](O)C[C@@]3(C)[C@]1(C)CC2 (some centres not stated)	2.08 µM	4.1 µM
COc1cccc(CCC(=O)c2cc3c(N)c(C(=O)Nc4cccc(Cl)c4C)sc3nc2C)c1	0.288 µM	2.82 µM
Cc1ncc(C(=O)Nc2ccc(CN3CCN(C)CC3)c(C(F)(F)F)c2)cc1C#Cc1c(N)ncc2ccccc12	0.577 µM	1.15 µM
Cc1cc(N(CCCNc2ccnc3cc(Cl)ccc23)Cc2ccc3c(c2)OCO3)nc(N2CCCCC2)n1	1.95 µM	4.67 µM
CSc1ccc(SC2c3ccc(C)cc3Oc3nc(N)c(C#N)c(N)c32)cc1 (configuration not stated)	1.74 µM	3.81 µM
CC(C)C[C@H](NC(=O)CCn1ccc2ncccc2c1=O)B(O)O	2.35 µM	14.4 µM
CCNNC(=O)[C@@H]1[C@H](c2cc(OC)c(OC)c(OC)c2)c2cc3c(cc2[C@H](O)[C@H]1CO)OCO3	0.281 µM	–
Cn1cnc2c(F)c(Nc3ccc(Br)cc3F)c(C(=O)NOCCO)cc21	26.9 µM	> 83.4 µM
COc1ccc(-c2cc(-c3cccc(NS(C)(=O)=O)c3)nc(N)c2C#N)cc1	1.35 µM	6.64 µM
O=C(N/N=C/c1ccc(Cl)cc1Cl)c1ccc2nc(-c3ccc(Cl)cc3)[nH]c2c1	1.64 µM	3.23 µM
CCCCCCCCCCCCCCCCCCOc1ccccc1CC(=O)NCC[N+](C)(C)C	2.47 µM	6.28 µM
Clc1ccc(CNc2nccc(-c3cnn4ncccc34)n2)cc1	5.62 µM	12.7 µM
